Among the data in ChEMBL document CHEMBL4043123, “α-Geminal disubstituted pyrrolidine iminosugars and their C-4-fluoro analogues: Synthesis, glycosidase inhibition and molecular docking studies” (Bioorg Med Chem, 2017) are IC50, Ki and inhibition values, retold here.

Activity calls are given as the source filed them. No cut-off for these calls is given here.

Assay [1] can be described thus: Competitive inhibition of Escherichia coli beta-galactosidase pre-incubated for 1 hr followed by p-nitrophenyl-beta-D-galactopyranoside substrate addition by fluorescence detection based assay.
In the next assay the test system is Oryza sativa. Kind of assay: Inhibition of rice alpha-glucosidase at 1 mM pre-incubated for 1 hr followed by p-nitrophenyl-alpha-D-glucopyranoside substrate addition by fluorescence detection based assay.
For assay [2], the target named is T1, Alpha-mannosidase (Canavalia ensiformis) (UniProt C0HJB3).
T1 sequence (whole entry): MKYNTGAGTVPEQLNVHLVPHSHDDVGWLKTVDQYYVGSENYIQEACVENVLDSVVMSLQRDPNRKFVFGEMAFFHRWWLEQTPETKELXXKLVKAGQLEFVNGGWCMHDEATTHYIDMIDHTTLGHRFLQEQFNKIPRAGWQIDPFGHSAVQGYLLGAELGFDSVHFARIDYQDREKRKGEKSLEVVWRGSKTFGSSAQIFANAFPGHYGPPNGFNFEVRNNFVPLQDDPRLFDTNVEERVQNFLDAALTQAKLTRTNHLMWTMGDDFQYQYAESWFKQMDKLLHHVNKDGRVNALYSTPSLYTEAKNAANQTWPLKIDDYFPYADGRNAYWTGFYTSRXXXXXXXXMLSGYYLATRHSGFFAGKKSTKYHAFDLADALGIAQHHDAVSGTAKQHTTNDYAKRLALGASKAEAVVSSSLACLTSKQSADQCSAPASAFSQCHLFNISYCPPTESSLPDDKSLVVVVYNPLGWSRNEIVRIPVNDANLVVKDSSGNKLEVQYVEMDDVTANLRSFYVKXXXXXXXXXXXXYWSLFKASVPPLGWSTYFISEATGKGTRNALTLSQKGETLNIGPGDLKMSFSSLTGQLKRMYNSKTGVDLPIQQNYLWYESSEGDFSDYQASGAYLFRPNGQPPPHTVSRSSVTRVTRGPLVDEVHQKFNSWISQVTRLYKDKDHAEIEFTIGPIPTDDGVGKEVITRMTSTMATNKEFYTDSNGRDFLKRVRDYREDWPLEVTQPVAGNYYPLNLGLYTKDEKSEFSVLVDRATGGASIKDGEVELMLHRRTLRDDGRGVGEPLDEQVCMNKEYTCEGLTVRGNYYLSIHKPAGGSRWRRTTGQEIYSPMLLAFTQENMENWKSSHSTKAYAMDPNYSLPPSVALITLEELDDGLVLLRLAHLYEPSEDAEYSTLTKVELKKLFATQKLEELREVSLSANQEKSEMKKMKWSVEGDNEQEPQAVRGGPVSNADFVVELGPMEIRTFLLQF
Kind of assay: Inhibition of jack beans alpha-mannosidase […] at 1 mM pre-incubated for 1 hr followed by […] substrate addition by fluorescence detection based assay.

The test system of the next assay is Saccharomyces cerevisiae. Kind of assay: Inhibition of yeast alpha-glucosidase at 1 mM pre-incubated for 1 hr followed by p-nitrophenyl-alpha-D-glucopyranoside substrate addition by fluorescence detection based assay.
For assay [3], the target named is Alpha-galactosidase (Coffea arabica) (UniProt Q42656). The assay is described as follows: Inhibition of coffee beans alpha-galactosidase at 1 mM pre-incubated for 1 hr followed by p-nitrophenyl-alpha-D-galactopyranoside substrate addition by fluorescence detection based assay.
The subject of a further assay is Prunus dulcis. The assay is described as follows: Inhibition of almond beta-glucosidase at 1 mM pre-incubated for 1 hr followed by p-nitrophenyl-beta-D-glucopyranoside, substrate addition by fluorescence detection based assay.
In a further assay the test system is Escherichia coli. Kind of assay: Inhibition of Escherichia coli beta-galactosidase at 1 mM pre-incubated for 1 hr followed by p-nitrophenyl-beta-D-galactopyranoside substrate addition by fluorescence detection based assay.
The target of assay [4] is T2, Alpha-galactosidase (Coffea arabica, UniProt Q42656). The assay is described as follows: Inhibition of coffee beans alpha-galactosidase pre-incubated for 1 hr followed by p-nitrophenyl-alpha-D-galactopyranoside substrate addition by fluorescence detection based assay.
Assay [5] is described as follows: Inhibition of almond beta-glucosidase pre-incubated for 1 hr followed by p-nitrophenyl-beta-D-glucopyranoside, substrate addition by fluorescence detection based assay. Also on record: species or system Prunus dulcis.
Assay [6] deals with T2, Alpha-galactosidase. Kind of assay: Competitive inhibition of coffee beans alpha-galactosidase pre-incubated for 1 hr followed by p-nitrophenyl-alpha-D-galactopyranoside substrate addition by fluorescence detection based assay.
Assay [7] can be described thus: Inhibition of yeast alpha-glucosidase pre-incubated for 1 hr followed by p-nitrophenyl-alpha-D-glucopyranoside substrate addition by fluorescence detection based assay. Also on record: species or system Saccharomyces cerevisiae.
The nature of assay [8]: Inhibition of rice alpha-glucosidase pre-incubated for 1 hr followed by p-nitrophenyl-alpha-D-glucopyranoside substrate addition by fluorescence detection based assay. Also on record: species or system Oryza sativa.
Assay [9] can be described thus: Competitive inhibition of almond beta-glucosidase pre-incubated for 1 hr followed by p-nitrophenyl-beta-D-glucopyranoside, substrate addition by fluorescence detection based assay. Set-up: species or system Prunus dulcis.

T2 sequence (Q42656 whole entry): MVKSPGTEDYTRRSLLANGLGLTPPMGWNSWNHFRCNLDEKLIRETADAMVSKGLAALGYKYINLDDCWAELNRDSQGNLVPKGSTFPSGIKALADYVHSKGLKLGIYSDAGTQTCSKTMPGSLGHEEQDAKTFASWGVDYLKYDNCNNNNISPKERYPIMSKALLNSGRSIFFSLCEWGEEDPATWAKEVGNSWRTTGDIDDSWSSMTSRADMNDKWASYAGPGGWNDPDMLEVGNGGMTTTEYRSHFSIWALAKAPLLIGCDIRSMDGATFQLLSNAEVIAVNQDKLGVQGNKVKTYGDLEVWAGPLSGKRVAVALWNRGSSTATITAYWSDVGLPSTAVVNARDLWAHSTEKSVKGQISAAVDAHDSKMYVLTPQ
Chain of Alpha-galactosidase (Coffea arabica) (Q42656 16-378 limits assumed): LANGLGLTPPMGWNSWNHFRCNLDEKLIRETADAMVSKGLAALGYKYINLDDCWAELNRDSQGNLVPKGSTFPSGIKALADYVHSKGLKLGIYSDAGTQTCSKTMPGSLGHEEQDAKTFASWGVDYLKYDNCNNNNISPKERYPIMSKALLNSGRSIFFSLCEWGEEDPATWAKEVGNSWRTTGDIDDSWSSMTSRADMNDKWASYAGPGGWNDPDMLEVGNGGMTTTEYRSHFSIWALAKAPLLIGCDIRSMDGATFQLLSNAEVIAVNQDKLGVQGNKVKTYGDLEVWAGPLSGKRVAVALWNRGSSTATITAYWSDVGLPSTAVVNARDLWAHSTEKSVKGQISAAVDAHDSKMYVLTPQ

Turning to `O=C(O)[C@]1(CO)NC[C@H](F)[C@H]1O`, in assay [1], the IC50 came to 65 nM. Moreover, in assay [1], affinity was put at a Ki of 51 nM. Also, the inhibition result (in the assay on Oryza sativa; in assay [2]; with Saccharomyces cerevisiae; in assay [3]; in the assay on Prunus dulcis) was “inactive” throughout.
As for `O=C(O)[C@@]1(CO)NC[C@H](F)[C@H]1O`, the inhibition result (in the assay with Oryza sativa; in assay [2]; in the assay on Escherichia coli; in the assay on Saccharomyces cerevisiae; with Prunus dulcis) was “inactive” in each case. On Alpha-galactosidase [4], the IC50 is 392000 nM. Further, affinity on Alpha-galactosidase [4] was put at a Ki of 364000 nM.
With `O=C(O)[C@@]1(CO)NC[C@@H](O)[C@H]1O`, the IC50 in assay [5] amounted to 445000 nM; on Alpha-galactosidase [6] it was 79 nM. Moreover, the inhibition constant (Ki) in assay [5] worked out at 349000 nM; on Alpha-galactosidase [6], 62 nM. In addition, the inhibition entry (with Oryza sativa; in [2]; in the assay on Escherichia coli; with Saccharomyces cerevisiae) was “inactive” throughout.
`OCC1(CO)NC[C@@H](O)[C@H]1O`: the inhibition entry (in the assay on Oryza sativa; in [2]; with Escherichia coli; with Saccharomyces cerevisiae; in the assay with Prunus dulcis) was “inactive” in each case. Also, at Alpha-galactosidase [6], the half-maximal inhibitory concentration (IC50) amounted to 16 nM. The compound also gave a Ki at Alpha-galactosidase [6] of 8 nM.
As to `O=C(O)[C@]1(CO)NC[C@@H](O)[C@H]1O`, the inhibition result (with Oryza sativa; in assay [2]; in the assay with Escherichia coli; in assay [3]; in the assay on Prunus dulcis) was “inactive” each time. This compound also registered an IC50 in assay [7] of 763000 nM. For the same compound, in [7], the Ki amounted to 619000 nM.
`OCCN1C[C@H](O)[C@@H](O)[C@H](O)[C@H]1CO` [MIGLITOL]: the inhibition result (in assay [2]; in the assay on Escherichia coli; in the assay with Saccharomyces cerevisiae; in assay [3]; with Prunus dulcis) was “inactive” in each case. The IC50 in [8] amounted to 50 nM. The same compound yielded a Ki in [8] of 28 nM.
On to `OCC1(CO)NC[C@H](F)[C@H]1O`, for which the inhibition entry (in [2]; in the assay with Escherichia coli; in the assay with Saccharomyces cerevisiae; in assay [3]) was “inactive” each time. The IC50 in assay [9] turned out to be 184 nM; in [8], 463000 nM. The Ki in assay [9] came to 144 nM; in assay [8] it was 376000 nM.

Broadly, the IC50 is the concentration that gives 50% inhibition. The low end stands for greater potency in that assay, the high end for weaker potency in that assay. As a reminder, the Ki is the dissociation constant of the complex between target and ligand, obtained from inhibition or displacement.
